The source of these data is ChEMBL document CHEMBL1137465, “Cytostatic evaluations of nucleoside analogs related to unnatural base pairs for a genetic expansion system” (Bioorg Med Chem Lett, 2007).

Bounds are passed on as bounds.

Series [1] concerns CCRF-CEM. In words: Cytostatic activity against human CCRFCEM cells at 500 uM by MTT assay. The series is classed as functional.
For series [2], the system named is HT-1080. The series is described as follows: Cytostatic activity against human HT1080 cells by MTT assay. The series is classed as functional, cell-based.
The nature of series [3]: Cytostatic activity against human WI38 cells at 500 uM by MTT assay. The series is classed as ADME, cell-based, WI-38. In general terms: Tetrazolium assays rely on reduction of a dye to a coloured formazan, in cell work by metabolically active cells.
For series [4], the system named is CCRF-CEM. The series is described as follows: Cytostatic activity against human CCRFCEM cells by MTT assay. Format: functional, cell-based.
Series [5] deals with HT-1080. The series is described as follows: Cytostatic activity against human HT1080 cells at 500 uM by MTT assay. The series is classed as functional.
Series [6] can be described thus: Cytostatic activity against human WI38 cells MTT assay. The series is classed as ADME, cell-based. The settings on record: WI-38.
Series [7] has as its system HT-1080. In words: Cytostatic activity against human HT1080 cells assessed as relative percent survival at 5 uM by MTT assay. Format: functional. The settings on record: read-out: Survival.
Series [8] relates to HT-1080. In words: Cytostatic activity against human HT1080 cells assessed as relative percent survival at 25 uM by MTT assay. Format: functional. To be noted: read-out: Survival.
Series [9] in a line: Cytostatic activity against human WI38 cells assessed as relative percent survival at 5 uM by MTT assay. Format: ADME, cell-based, WI-38. The settings on record: read-out: Survival.
Series [10] concerns WI-38. In words: Cytostatic activity against human WI38 cells assessed as relative percent survival at 25 uM by MTT assay. Format: functional. The settings on record: read-out: Survival.

By inhibition is commonly meant how much of the control response was suppressed. In general, IC50 refers to the concentration that gives 50% inhibition. Lower therefore signals greater potency in that assay. For `Nc1nc(-c2ccco2)c2ncn([C@H]3C[C@H](O)[C@@H](CO)O3)c2n1`, the inhibition at 500 µM in series [1] and in series [3] was less than 50% in each case. The compound also yielded an IC50 in [2] of 290 µM.

For `OC[C@H]1O[C@@H](n2cnc3c(-c4ccco4)ncnc32)C[C@@H]1O`, the inhibition at 500 µM in series [1] and in [3] was less than 50% in each case. Besides, the IC50 in [2] is 330 µM.

Consider `OC[C@H]1O[C@@H](n2cnc3c(-c4cccs4)ncnc32)C[C@@H]1O`, for which the IC50 was 420 µM in series [4] and 95 µM in [2]. The compound also displayed an inhibition at 500 µM in series [3] of less than 50%.

Regarding `O=Cc1cccn1[C@@H]1O[C@H](CO)[C@@H](O)[C@H]1O`, the inhibition at 500 µM in series [1], in [5] and in series [3] was less than 50% in each case.

In the case of `OC[C@H]1O[C@@H](n2cnc3c(-c4cccs4)ncnc32)[C@H](O)[C@@H]1O`, the IC50 in [4] was 2.3 µM; in series [2], 0.33 µM; in [6] it was 5.7 µM.

With `O=c1[nH]cccc1[C@H]1C[C@H](O)[C@@H](CO)O1`, the inhibition at 500 µM in series [5] and in [3] was less than 50% throughout.

For `Nc1nc(-c2cccs2)c2ncn([C@H]3C[C@H](O)[C@@H](CO)O3)c2n1`, the 50% inhibitory concentration (IC50) came to 340 µM in [4], 38 µM in [2] and 500 µM in [6]. The values for the viability at 5 µM in series [7] and in [9] were 97% and 92%, respectively. The viability at 25 µM was 69% in series [8] and 91% in [10].

With `O=c1[nH]cccc1[C@@H]1O[C@H](CO)[C@@H](O)[C@H]1O`, the inhibition at 500 µM in [5] and in series [3] was less than 50% in each case.

Take `OC[C@H]1O[C@@H](n2cnc3c(-c4cccs4)ccnc32)[C@H](O)[C@@H]1O`: the results for the IC50 in [4], in [2] and in series [6] were 230 µM, 190 µM and 310 µM, respectively.

For `O=c1[nH]c(=O)n([C@H]2C[C@H](O)[C@@H](CO)O2)cc1F` [FLOXURIDINE], the results for the IC50 in [4], in series [2] and in series [6] were 0.29 µM, 0.18 µM and 500 µM, respectively.

On to `Nc1nc(-c2cccs2)c2ncn([C@@H]3O[C@H](CO)[C@@H](O)[C@H]3O)c2n1`, for which the inhibition at 500 µM in [1] and in series [3] was less than 50% throughout. Further, in [2], the IC50 amounted to 88 µM.

With `O=Cc1cccn1[C@H]1C[C@H](O)[C@@H](CO)O1`, the inhibition at 500 µM in series [1], in series [5] and in series [3] was less than 50% in each case.

On to `OC[C@H]1O[C@@H](n2cnc3c(-c4cccs4)ccnc32)C[C@@H]1O`, for which the figures for the IC50 in series [4], in [2] and in [6] were 120 µM, 56 µM and 190 µM, respectively.
